Results taken from patent publication US20200024278A1, “COMPOSITION COMPRISING ANTIBIOTIC COMPOUND AND AN HETEROCYCLIC COMPOUND AND THEIR USE IN PREVENTING OR TREATING BACTERIAL INFECTIONS” (MUTABILIS, priority 2016, published 2020).

Key:
Test in all cases: MIC, broth microdilution (CLSI), substance alone or ATB combined with compound at 4 or 8 μg/mL
SPN 49619 = assay type: cell-based, S. pneumoniae; details: for MIC ATB combined with compound / MIC ATB combined with Example compound: compound @8 μg/ml, SPN 49619
Summary of the method: (§1)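 Per CLSI-M7-A7, MICs are determined in cation-adjusted Mueller-Hinton broth with a final inoculum of 5·10^5 CFU/mL. Plates incubate 16-20 h at 35° C in air and are read by eye. Fosfomycin assays carry 25 μg/ml glucose-6-phosphate.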

PAE UFR90 = assay type: cell-based, P. aeruginosa; details: for MIC ATB combined with compound / MIC ATB combined with Example compound: compound @8 μg/ml, PAE UFR90
Summary of the method: as §1

PAE UFR48 = assay type: cell-based, P. aeruginosa; details: for MIC ATB combined with compound / MIC ATB combined with Example compound: compound @8 μg/ml, PAE UFR48
Summary of the method: as §1

PAE 105250 = assay type: cell-based, P. aeruginosa; details: for MIC ATB combined with compound / MIC ATB combined with Example compound: compound @8 μg/ml, PAE 105250
Summary of the method: as §1

ECL P99 = assay type: cell-based, E. cloacae
Summary of the method: as §1

SAU 29213 = assay type: cell-based, S. aureus; details: for MIC ATB combined with compound / MIC ATB combined with Example compound: compound @8 μg/ml, SAU 29213
Summary of the method: as §1

KPN 6299 = assay type: cell-based, K. pneumoniae; details: MIC of CIP, compound @8 μg/ml
Procedure: (§2) Compounds of the present invention were assessed against genotyped bacterial strains alone or in combination with an antibacterial. In the assays, MICs of said compounds or combination of antibiotics with fixed concentrations of said compounds (4 or 8 μg/mL) were determined by the broth microdilution method according to the Clinical Laboratory Standards Institute (CLSI-M7-A7). Briefly, compounds alone according to the invention were prepared in DMSO and spotted (2 μL each) on sterile polystyrene plates (Corning, 3788). Combinations of compounds and antibiotics dilutions were prepared in DMSO and spotted (1 μL each) on sterile polystyrene plates (Corning, 3788). Log phase bacterial suspensions were adjusted to a final density of 5·10^5 CFU/mL in cation-adjusted Mueller-Hinton broth (ca-MHB; Becton-Dickinson and Company) and added to each well (98 μL). Assays including Fosfomycin were supplemented with 25 μg/ml of Glucose-6-phosphate. Microplates were incubated for 16-20 h at 35° C. in ambient air. The MIC of the compounds was defined as the lowest concentration of said compounds that prevented bacterial growth as read by visual inspection. The MIC of ATB at each compound concentration was defined as the lowest concentration of ATB that prevented bacterial growth as read by visual inspection.

KPN UFR42 = assay type: cell-based, K. pneumoniae; details: for MIC ATB combined with Example compound: compound @8 μg/ml, KPN UFR42
Procedure: as §2

KPN BAA-1898 = assay type: cell-based, K. pneumoniae
Procedure: as §2

ECO UFR39 = assay type: cell-based, E. coli; details: for MIC ATB combined with Example compound: compound @8 μg/ml, ECO UFR39
Summary of the method: as §1

ECO 190317 = assay type: cell-based, E. coli
Summary of the method: as §1

O=C1N2CC(c3ncco3)=CC(C2)N1OC(F)(F)C(=O)O (stereo not shown) [Example 7]
8 µg/mL: MIC ATB combined with compound (SPN 49619; ATB FOS) | MIC ATB combined with compound (PAE UFR90; ATB FOS) | MIC ATB combined with compound (PAE 105250; ATB ATM) | MIC ATB combined with compound (PAE 105250; ATB FEP) | MIC (ECL P99; Enterobacter cloacae) | MIC ATB combined with Example compound (KPN 6299) | MIC (KPN BAA-1898; Klebsiella pneumoniae, BAA1898) | MIC (ECO UFR39; Escherichia coli)
<=0.031 μg/mL: MIC ATB combined with compound (SPN 49619; ATB FEP) | MIC ATB combined with compound (SPN 49619; ATB MEM) | MIC ATB combined with Example compound (SPN 49619; MIC of CPO) | MIC ATB combined with compound (SAU 29213; ATB MEM) | MIC ATB combined with Example compound (KPN UFR42; MIC of CPO)
0.031 µg/mL: MIC ATB combined with Example compound (SAU 29213; MIC of CLI)
1 µg/mL: MIC ATB combined with Example compound (SPN 49619; MIC of LZD) | MIC ATB combined with Example compound (PAE UFR90; MIC of CIP) | MIC ATB combined with compound (SAU 29213; ATB FEP) | MIC ATB combined with compound (SAU 29213; ATB PIP) | MIC ATB combined with Example compound (SAU 29213; MIC of DAP) | MIC ATB combined with Example compound (SAU 29213; MIC of LZD) | MIC ATB combined with Example compound (SAU 29213; MIC of VAN) | MIC ATB combined with Example compound (KPN BAA-1898; MIC of CIP, compound @8 μg/ml, KPN BAA-1898)
0.125 µg/mL: MIC ATB combined with Example compound (SPN 49619; MIC of CLI) | MIC ATB combined with Example compound (SPN 49619; MIC of DAP) | MIC ATB combined with Example compound (SPN 49619; MIC of ERY) | MIC ATB combined with Example compound (SPN 49619; MIC of VAN) | MIC ATB combined with Example compound (PAE 105250; MIC of CIP)
16 µg/mL: MIC (SPN 49619; Streptococcus pneumoniae) | MIC ATB combined with compound (PAE UFR90; ATB ATM) | MIC ATB combined with Example compound (PAE UFR90; MIC of CPO) | MIC ATB combined with Example compound (PAE 105250; MIC of CPO) | MIC (KPN UFR42; Klebsiella pneumoniae)
2 µg/mL: MIC ATB combined with compound (PAE UFR90; ATB MEM)
0.0078 µg/mL: MIC ATB combined with Example compound (SPN 49619; MIC of RIF) | MIC ATB combined with Example compound (SAU 29213; MIC of RIF)
<0.031 µg/mL: MIC ATB combined with Example compound (ECL P99; MIC of CIP, compound @8 μg/ml, ECL P99) | MIC ATB combined with Example compound (ECO UFR39; MIC of CIP) | MIC ATB combined with Example compound (ECO UFR39; MIC of CPO) | MIC ATB combined with Example compound (ECO 190317; MIC of CIP, compound @8 μg/ml, ECO 190317)
0.5 µg/mL: MIC ATB combined with compound (SPN 49619; ATB PIP) | MIC ATB combined with Example compound (SPN 49619; MIC of CIP) | MIC ATB combined with Example compound (SPN 49619; MIC of SYN) | MIC ATB combined with compound (SAU 29213; ATB FOS)
32 µg/mL: MIC ATB combined with compound (PAE UFR48; ATB FEP) | MIC ATB combined with compound (PAE UFR48; ATB FOS) | MIC (SAU 29213; Staphylococcus aureus, MSSA)
> 32 µg/mL: MIC (PAE UFR90; Pseudomonas aeruginosa) | MIC (PAE UFR48; Pseudomonas aeruginosa) | MIC (PAE 105250; Pseudomonas aeruginosa)
>128 µg/mL: MIC ATB combined with compound (PAE 105250; ATB FOS)
4 µg/mL: MIC ATB combined with compound (PAE UFR90; ATB FEP) | MIC ATB combined with compound (PAE UFR48; ATB MEM) | MIC ATB combined with Example compound (PAE UFR48; MIC of CIP) | MIC ATB combined with compound (PAE 105250; ATB MEM) | MIC (ECO 190317; Escherichia coli)
>32 µg/mL: MIC ATB combined with compound (SPN 49619; ATB ATM) | MIC ATB combined with compound (PAE UFR90; ATB PIP) | MIC ATB combined with compound (PAE UFR48; ATB ATM) | MIC ATB combined with compound (PAE UFR48; ATB PIP) | MIC ATB combined with Example compound (PAE UFR48; MIC of CPO) | MIC ATB combined with compound (PAE 105250; ATB PIP) | MIC ATB combined with compound (SAU 29213; ATB ATM) | MIC ATB combined with Example compound (KPN UFR42; MIC of CIP)
0.25 µg/mL: MIC ATB combined with Example compound (SAU 29213; MIC of CIP) | MIC ATB combined with Example compound (SAU 29213; MIC of CPO) | MIC ATB combined with Example compound (SAU 29213; MIC of ERY) | MIC ATB combined with Example compound (SAU 29213; MIC of SYN)
